Laboratory results from ChEMBL document CHEMBL1201862, “PubChem BioAssay data set” (2004).
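Cultured in 96-well plates, cells were exposed to test compound for 48 hours across five concentrations. GI50 = concentration required for 50% inhibition of growth.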 The source made the active and inactive calls. Rule as the data show it: active = GI50 up to about 1.1 µM and inactive = higher.

Experiments:
Test in all cases: NCI-60 cell line screen, 48 h
[1] = tested on: MOLT-4
[2] = tested on: SW-620
[3] = tested on: MCF7
[4] = tested on: UACC-62
[5] = tested on: SNB-75
[6] = tested on: PC-3
[7] = tested on: OVCAR-5
[8] = tested on: TK-10
[9] = tested on: NCI-H522
[10] = tested on: A549
[11] = tested on: Hs-578T
[12] = tested on: HCT-15
[13] = tested on: OVCAR-8
[14] = tested on: CCRF-CEM
[15] = tested on: SNB-19
[16] = tested on: NCI-H460
[17] = tested on: U-251
[18] = tested on: RXF 393
[19] = tested on: HT-29
[20] = tested on: NCI-H23
[21] = tested on: SK-MEL-5
[22] = tested on: MDA-MB-231
[23] = tested on: OVCAR-3
[24] = tested on: T47D
[25] = tested on: KM12
[26] = tested on: 786-0
[27] = tested on: EKVX
[28] = tested on: MDA-N
[29] = tested on: HCT-116
[30] = tested on: UACC-257
[31] = tested on: NCI/ADR-RES
[32] = tested on: A498
[33] = tested on: ACHN
[34] = tested on: DU-145
[35] = tested on: COLO 205
[36] = tested on: BT-549
[37] = tested on: M14
[38] = tested on: SN12C
[39] = tested on: SK-MEL-28
[40] = tested on: HOP-62
[41] = tested on: SF-268
[42] = tested on: HOP-92
[43] = tested on: MDA-MB-435
[44] = tested on: CAKI-1
[45] = tested on: RPMI-8226
[46] = tested on: Malme-3M
[47] = tested on: NCI-H226
[48] = tested on: SK-OV-3
[49] = tested on: SK-MEL-2
[50] = tested on: SF-295
[51] = tested on: HCC 2998
[52] = tested on: IGROV-1
[53] = tested on: HL-60
[54] = tested on: OVCAR-4
[55] = tested on: UO-31
[56] = tested on: SF-539
[57] = tested on: K562
[58] = tested on: LOX IMVI

CCSc1n/c(=C\c2ccc(N(C)C)cc2)c2nnnn12
GI50 [1]: > 100 µM (inactive) | GI50 [2]: > 100 µM (inactive) | GI50 [3]: > 100 µM (inactive) | GI50 [4]: > 100 µM (inactive) | GI50 [5]: > 100 µM (inactive) | GI50 [6]: > 100 µM (inactive) | GI50 [7]: > 100 µM (inactive) | GI50 [8]: > 100 µM (inactive) | GI50 [9]: > 100 µM (inactive) | GI50 [10]: > 100 µM (inactive) | GI50 [11]: > 100 µM (inactive) | GI50 [12]: > 100 µM | GI50 [13]: > 100 µM (inactive) | GI50 [14]: > 100 µM (inactive) | GI50 [15]: > 100 µM (inactive) | GI50 [16]: > 100 µM (inactive) | GI50 [17]: > 100 µM (inactive) | GI50 [18]: > 100 µM (inactive) | GI50 [19]: > 100 µM (inactive) | GI50 [20]: > 100 µM (inactive) | GI50 [21]: > 100 µM (inactive) | GI50 [22]: > 100 µM (inactive) | GI50 [23]: > 100 µM (inactive) | GI50 [24]: > 100 µM (inactive) | GI50 [25]: > 100 µM (inactive) | GI50 [26]: > 100 µM (inactive) | GI50 [27]: > 100 µM (inactive) | GI50 [28]: > 100 µM (inactive) | GI50 [29]: > 100 µM (inactive) | GI50 [30]: > 100 µM (inactive) | GI50 [31]: > 100 µM (inactive) | GI50 [32]: > 100 µM (inactive) | GI50 [33]: > 100 µM (inactive) | GI50 [34]: > 100 µM (inactive) | GI50 [35]: > 100 µM (inactive) | GI50 [36]: > 100 µM (inactive) | GI50 [37]: > 100 µM (inactive) | GI50 [38]: > 100 µM (inactive) | GI50 [39]: > 100 µM (inactive) | GI50 [40]: > 100 µM (inactive) | GI50 [41]: > 100 µM (inactive) | GI50 [42]: > 100 µM (inactive) | GI50 [43]: > 100 µM (inactive) | GI50 [44]: > 100 µM (inactive) | GI50 [45]: > 100 µM (inactive) | GI50 [46]: > 100 µM (inactive) | GI50 [47]: > 100 µM (inactive) | GI50 [48]: > 100 µM (inactive) | GI50 [49]: > 100 µM (inactive) | GI50 [50]: 99.3 µM (inactive) | GI50 [51]: > 100 µM (inactive) | GI50 [52]: > 100 µM (inactive) | GI50 [53]: > 100 µM (inactive) | GI50 [54]: > 100 µM (inactive)

C=CCCC(On1c(-c2ccc(Cl)cc2)csc1=S)c1ccccc1 (stereo not drawn)
GI50 [55]: 42 µM (inactive) | GI50 [1]: 7.62 µM (inactive) | GI50 [56]: 26.9 µM (inactive) | GI50 [2]: 8.73 µM (inactive) | GI50 [3]: 16.7 µM (inactive) | GI50 [4]: 36.7 µM (inactive) | GI50 [6]: 27.3 µM (inactive) | GI50 [7]: > 100 µM (inactive) | GI50 [8]: 83.4 µM (inactive) | GI50 [9]: 12.4 µM (inactive) | GI50 [10]: 31.2 µM (inactive) | GI50 [11]: 34.4 µM (inactive) | GI50 [12]: 8.05 µM | GI50 [13]: 98.6 µM (inactive) | GI50 [14]: 12.4 µM (inactive) | GI50 [15]: 35.6 µM (inactive) | GI50 [17]: 21.2 µM (inactive) | GI50 [18]: 29.7 µM (inactive) | GI50 [19]: 7.59 µM (inactive) | GI50 [20]: 39.4 µM (inactive) | GI50 [21]: 14.9 µM (inactive) | GI50 [22]: 68.9 µM (inactive) | GI50 [23]: 23 µM (inactive) | GI50 [24]: 17 µM (inactive) | GI50 [25]: 26.5 µM (inactive) | GI50 [26]: 32.6 µM (inactive) | GI50 [27]: 19.9 µM (inactive) | GI50 [28]: 3.36 µM (inactive) | GI50 [29]: 7.03 µM (inactive) | GI50 [30]: 33 µM (inactive) | GI50 [31]: 13.7 µM (inactive) | GI50 [32]: > 100 µM (inactive) | GI50 [33]: 83.6 µM (inactive) | GI50 [34]: 49.4 µM (inactive) | GI50 [35]: 22.5 µM (inactive) | GI50 [36]: 58.3 µM (inactive) | GI50 [37]: 13.9 µM (inactive) | GI50 [38]: 47.3 µM (inactive) | GI50 [39]: 85.3 µM (inactive) | GI50 [40]: 90.6 µM (inactive) | GI50 [41]: 34 µM (inactive) | GI50 [42]: 40.6 µM (inactive) | GI50 [43]: 4.56 µM (inactive) | GI50 [57]: 9.51 µM (inactive) | GI50 [44]: > 100 µM (inactive) | GI50 [45]: 31.8 µM (inactive) | GI50 [46]: 14.6 µM (inactive) | GI50 [47]: 26.7 µM (inactive) | GI50 [49]: 14.9 µM (inactive) | GI50 [50]: 13.9 µM (inactive) | GI50 [58]: 33.6 µM (inactive) | GI50 [52]: 20.2 µM (inactive) | GI50 [53]: 7.18 µM (inactive) | GI50 [54]: 38.5 µM (inactive)
